The values that follow come from patent US10988478B1, “Pyrazolo[1,5a]pyrimidine derivatives as IRAK4 modulators” (Genentech, Inc., priority 2015, dated 2021).

human IRAK4, sequence (Q9NWZ3 whole entry, the tested form may be a part): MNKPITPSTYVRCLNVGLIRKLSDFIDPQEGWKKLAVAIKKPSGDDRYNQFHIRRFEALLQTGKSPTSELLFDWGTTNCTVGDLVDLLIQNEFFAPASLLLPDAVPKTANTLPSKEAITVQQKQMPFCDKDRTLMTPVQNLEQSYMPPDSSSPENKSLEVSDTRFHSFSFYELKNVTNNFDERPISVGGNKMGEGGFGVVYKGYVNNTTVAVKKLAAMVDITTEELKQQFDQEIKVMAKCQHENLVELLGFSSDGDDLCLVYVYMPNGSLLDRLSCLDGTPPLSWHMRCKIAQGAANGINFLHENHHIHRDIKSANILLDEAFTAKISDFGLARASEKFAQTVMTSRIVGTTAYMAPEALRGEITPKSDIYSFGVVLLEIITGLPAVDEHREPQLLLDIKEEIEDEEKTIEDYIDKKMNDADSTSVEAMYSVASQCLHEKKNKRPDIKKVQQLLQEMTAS

This assay addresses human IRAK4 (Homo sapiens (Human), UniProt Q9NWZ3). Kind of assay: IRAK4 kinase inhibition, Transcreener fluorescence polarization ADP assay. In kind it is biochemical. As to conditions: recombinant full-length His6-IRAK4; 125 uM ATP; 90 min; Ki computed using ATP Km 642 uM. How it is done:
Compounds were assayed for inhibition of human IRAK4 and IRAK1 catalytic activity using recombinant enzyme produced from insect cells. Full-length IRAK4 protein, carrying an N-terminal His6-Tag, was obtained from Life Technologies (Carlsbad, Calif., USA). The IRAK1 construct was produced internally and was comprised of IRAK1 residues Arg194 to Ser712, preceded by an NH2-terminal His6 tag and the coding sequence for glutathione-S-transferase.
For `CN1Cc2cc(NC(=O)c3cnn4cccnc34)c(N3CCOCC3)cc2C1=O` [Example 140, N-(2-Methyl-6-morpholino-1-oxoisoindolin-5-yl)pyrazolo[1,5-a]pyrimidine-3-carboxamide], the inhibition constant Ki was 26 nM.

Turning to `CC1(C)Cc2cc(NC(=O)c3cnn4cccnc34)c(N3CCN(CC4CCOCC4)CC3)cc2O1` [Example 464, N-(2,2-dimethyl-6-(4-((tetrahydro-2H-pyran-4-yl)methyl)piperazin-1-yl)-2,3-dihydrobenzofuran-5-yl)pyrazolo[1,5-a]pyrimidine-3-carboxamide], the Ki amounted to 67 nM.

As for `C[C@]1(CO)Cc2cc(NC(=O)c3cnn4cccnc34)c(N3CCC4(CC3)CNC4=O)cc2O1` [Example 320, (R)-N-(2-(hydroxymethyl)-2-methyl-6-(1-oxo-2,7-diazaspiro[3.5]nonan-7-yl)-2,3-dihydrobenzofuran-5-yl)pyrazolo[1,5-a]pyrimidine-3-carboxamide], the Ki was determined as 4.6 nM.

For `C[C@H](CN1Cc2cc(NC(=O)c3cnn4cccnc34)c(N3CCOCC3)cc2C1=O)N1CCOCC1` [Example 552, N-[6-morpholino-2-[(2R)-2-morpholinopropyl]-1-oxo-isoindolin-5-yl]pyrazolo[1,5-a]pyrimidine-3-carboxamide], the Ki turned out to be 12 nM.

Turning to `CNc1cnc2c(C(=O)Nc3cc4c(cc3N3CCOCC3)C(=O)N(C(C)C)C4)cnn2c1` [Example 398, N-(2-Isopropyl-6-morpholino-1-oxoisoindolin-5-yl)-6-(methylamino)pyrazolo[1,5-a]-pyrimidine-3-carboxamide], the inhibition constant (Ki) came to 7 nM.

Consider `CC1(C)Cc2cc(NC(=O)c3cnn4cccnc34)c(OCC(F)F)cc2O1` [Example 302, N-(6-(2,2-Difluoroethoxy)-2,2-dimethyl-2,3-dihydrobenzofuran-5-yl)pyrazolo[1,5-α]pyrimidine-3-carboxamide], for which the Ki is 11 nM.

As for `CC(C)(O)[C@H](F)CN1Cc2cc(NC(=O)c3cnn4cccnc34)c(Cl)cc2C1=O` [Example 521, N-[6-chloro-2-[(2R)-2-fluoro-3-hydroxy-3-methyl-butyl]-1-oxo-isoindolin-5-yl]pyrazolo[1,5-a]pyrimidine-3-carboxamide], the inhibitory constant (Ki) was 4 nM.

As for `C[C@]1(C(F)(F)F)Cc2cc(NC(=O)c3cnn4cccnc34)c(N3CCOCC3)cc2O1` [Example 76, (R)—N-(2-Methyl-6-morpholino-2-(trifluoromethyl)-2,3-dihydrobenzofuran-5-yl)pyrazolo[1,5-a]pyrimidine-3-carboxamide], the Ki was found to be 25 nM.

Regarding `CCOP(=O)(OCC)OCC1(C)Cc2cc(NC(=O)c3cnn4cccnc34)c(N3CCOCC3)cc2O1` (stereo not drawn) [Example 290, Diethyl ((2-methyl-6-morpholino-5-(pyrazolo[1,5-a]pyrimidine-3-carboxamido)-2,3-dihydrobenzofuran-2-yl)methyl) phosphate], the Ki was found to be 180 nM.

As for `O=C(Nc1cc2c(cc1N1CCC(CO)CC1)O[C@](CO)(C(F)(F)F)C2)c1cnn2cccnc12` [Example 316, (R)-N-(2-(hydroxymethyl)-6-(4-(hydroxymethyl)piperidin-1-yl)-2-(trifluoromethyl)-2,3-dihydrobenzofuran-5-yl)pyrazolo[1,5-a]pyrimidine-3-carboxamide], the Ki was 5.2 nM.

Turning to `CN1CCC2(CC1)Cc1cc(NC(=O)c3cnn4cccnc34)c(N3CCN(CC(=O)NC4CC4)CC3)cc1O2` [Example 376, N-(6-(4-(2-(Cyclopropylamino)-2-oxoethyl)piperazin-1-yl)-1′-methyl-3H-spiro[benzofuran-2,4′-piperidin]-5-yl)pyrazolo[1,5-a]pyrimidine-3-carboxamide], the inhibitory constant (Ki) amounted to 46 nM.

As for `C[C@]1(C2CC2)Cc2cc(NC(=O)c3cnn4cccnc34)c(N3CCC(F)(CO)CC3)cc2O1` [Example 161, (R)—N-(2-Cyclopropyl-6-(4-fluoro-4-(hydroxymethyl)piperidin-1-yl)-2-methyl-2,3-dihydrobenzofuran-5-yl)pyrazolo[1,5-a]pyrimidine-3-carboxamide], the inhibitory constant (Ki) amounted to 3.8 nM.

Turning to `Cc1cnc2c(C(=O)Nc3cc4c(cc3N3CCC(F)(CO)CC3)OC(C)(CO)C4)cnn2c1` (stereo not drawn) [Example 328, N-(6-(4-Fluoro-4-(hydroxymethyl)-piperidin-1-yl)-2-(hydroxymethyl)-2-methyl-2,3-dihydrobenzofuran-5-yl)-6-methylpyrazolo[1,5-α]pyrimidine-3-carboxamide], the Ki was determined as 2.7 nM.

As for `CC1(C)Cc2cc(NC(=O)c3cnn4cccnc34)c(N3CCN(CC(=O)NCC4CCCO4)CC3)cc2O1` (stereo not drawn) [Example 440, N-(2,2-dimethyl-6-(4-(2-oxo-2-(((tetrahydrofuran-2-yl)methyl)amino)ethyl)piperazin-1-yl)-2,3-dihydrobenzofuran-5-yl)pyrazolo[1,5-a]pyrimidine-3-carboxamide], the Ki was 53 nM.

Take “N-(2,2-dimethyl-6-(4-(2-oxo-2-(thiazol-2-ylamino)ethyl)piperazin-1-yl)-2,3-dihydrobenzofuran-5-yl)pyrazolo[1,5-a]pyridine-3-carboxamide [Example 441]”: the Ki turned out to be 6 nM.

Take `CC(C)(O)[C@H](F)CN1Cc2cc(NC(=O)c3cnn4cc(Br)cnc34)c(N3CCOCC3)cc2C1=O` [Example 269, 6-bromo-N-[2-[(2R)-2-fluoro-3-hydroxy-3-methyl-butyl]-6-morpholino-1-oxo-isoindolin-5-yl]pyrazolo[1,5-a]pyrimidine-3-carboxamide]: the Ki was 1.5 nM.

`C[C@H](N)CN1CCN(c2cc3c(cc2NC(=O)c2cnn4cccnc24)CC(C)(C)O3)CC1` [Example 478, N-[6-[4-[(2S)-2-Aminopropyl]piperazin-1-yl]-2,2-dimethyl-3H-benzofuran-5-yl]pyrazolo[1,5-a]pyrimidine-3-carboxamide]: the Ki was determined as 6 nM.

As for `CC1(C)Cc2cc(NC(=O)c3cnn4cccnc34)c(N3CCN4CCC[C@H]4C3)cc2O1` [Example 442, (S)-N-(6-(hexahydropyrrolo[1,2-a]pyrazin-2(1H)-yl)-2,2-dimethyl-2,3-dihydrobenzofuran-5-yl)pyrazolo[1,5-a]pyrimidine-3-carboxamide], the Ki turned out to be 96 nM.

Turning to `CCC(O)(CC)CN1CCN(c2cc3c(cc2NC(=O)c2cnn4cccnc24)CC(C)(C)O3)CC1` [Example 435, N-(6-(4-(2-Ethyl-2-hydroxybutyl)piperazin-1-yl)-2,2-dimethyl-2,3-dihydrobenzofuran-5-yl)pyrazolo[1,5-a]pyrimidine-3-carboxamide], the Ki was 53 nM.

On to `CC1(C)Cc2cc(NC(=O)c3cnn4cccnc34)c(N3CCC4(CC3)CN(CC(F)F)C4)cc2O1` [Example 248, N-(6-(2-(2,2-Difluoroethyl)-2,7-diazaspiro[3.5]nonan-7-yl)-2,2-dimethyl-2,3-dihydrobenzofuran-5-yl)pyrazolo[1,5-a]pyrimidine-3-carboxamide], for which the Ki worked out at 36 nM.

In the case of `Cc1cnc2c(C(=O)Nc3cc4c(cc3N3CCC(CO)CC3)OC(C)(CO)C4)cnn2c1` (stereo not drawn) [Example 16, N-(2-(Hydroxymethyl)-6-(4-(hydroxymethyl)piperidin-1-yl)-2-methyl-2,3-dihydrobenzofuran-5-yl)-6-methylpyrazolo[1,5-a]pyrimidine-3-carboxamide], the Ki was 1.9 nM.

For `CC(C)(O)CCN1Cc2cc(NC(=O)c3cnn4cccnc34)c(N3CCN(CC(N)=O)CC3)cc2C1=O` [Example 280, N-[6-[4-(2-Amino-2-oxo-ethyl)piperazin-1-yl]-2-(3-hydroxy-3-methyl-butyl)-1-oxo-isoindolin-5-yl]pyrazolo[1,5-a]pyrimidine-3-carboxamide], the Ki was 2 nM.

Regarding `CC1(C)Cc2cc(NC(=O)c3cnn4cccnc34)c(N3CCN(Cc4c[nH]cn4)CC3)cc2O1` [Example 509, N-(6-(4-((1H-imidazol-4-yl)methyl)piperazin-1-yl)-2,2-dimethyl-2,3-dihydrobenzofuran-5-yl)pyrazolo[1,5-a]pyrimidine-3-carboxamide], the Ki was 1.1 nM.

Take `O=C(Nc1cc2c(cc1N1CCOCC1)C(=O)N(CC1CCOC1)C2)c1cnn2cccnc12` (single isomer, unassigned) [Example 555]: the Ki is 3.8 nM.

As to `CC(C)(O)[C@@]1(C)Cc2cc(NC(=O)c3cnn4cccnc34)c(O[C@H]3CC[C@H](O)CC3)cc2O1` [Example 315, N-[(2R)-6-(trans-4-Hydroxycyclo-hexoxy)-2-(1-hydroxy-1-methyl-ethyl)-2-methyl-3H-benzofuran-5-yl]pyrazolo[1,5-a]pyrimidine-3-carboxamide], the inhibition constant (Ki) came out at 520 nM.

With `CC1(C)Cc2cc(NC(=O)c3cnn4cccnc34)c(N3CCC(C(F)(F)F)CC3)cc2O1` [Example 218, N-(2,2-dimethyl-6-(4-(trifluoromethyl)piperidin-1-yl)-2,3-dihydrobenzofuran-5-yl)pyrazolo[1,5-a]pyrimidine-3-carboxamide], the Ki worked out at 17 nM.

On to `O=C(Nc1cc2c(cc1N1CCOCC1)C(=O)N([C@H]1CCC[C@H]1CO)C2)c1cnn2cccnc12` [Example 564, N-(2-((1S,2R)-2-(hydroxymethyl)cyclopentyl)-6-morpholino-1-oxoisoindolin-5-yl)pyrazolo[1,5-a]pyrimidine-3-carboxamide], for which the Ki was 28 nM.

As for `Cc1cnc2c(C(=O)Nc3cc4c(cc3N3CCOCC3)C(=O)N(C[C@@H](F)C(C)(C)O)C4)cnn2c1` [Example 264, N-[2-[(2R)-2-Fluoro-3-hydroxy-3-methyl-butyl]-6-morpholino-1-oxo-isoindolin-5-yl]-6-methyl-pyrazolo[1,5-a]pyrimidine-3-carboxamide], the Ki worked out at 2 nM.

As for `Cn1ccnc1-c1cc2c(cc1NC(=O)c1cnn3cccnc13)CC(C)(C)O2` [Example 406, N-[2,2-Dimethyl-6-(1-methylimidazol-2-yl)-3H-benzofuran-5-yl]pyrazolo[1,5-a]pyrimidine-3-carboxamide], the Ki is 150 nM.

Take `C[C@@]1(O)COc2cc(N3CCOCC3)c(NC(=O)c3cnn4cccnc34)cc2C1` (single isomer, unassigned) [Example 28]: the Ki is 27 nM.

Broadly, the Ki is a dissociation constant, usually derived from enzyme kinetics or from competition with a known ligand.
